From ChEMBL document CHEMBL1144305, “Benzimidazole derivatives as novel nonpeptide luteinizing hormone-releasing hormone (LHRH) antagonists. Part 2: Benzimidazole-5-sulfonamides” (Bioorg Med Chem Lett, 2005) come the findings set out here.

The structures appear in SMILES notation. A value given as a limit tells only on which side of the number the result lay.

For experiment [1], the target named is T1, Gonadotropin-releasing hormone receptor (Rattus norvegicus, UniProt P30969).
T1 sequence (P30969 whole entry): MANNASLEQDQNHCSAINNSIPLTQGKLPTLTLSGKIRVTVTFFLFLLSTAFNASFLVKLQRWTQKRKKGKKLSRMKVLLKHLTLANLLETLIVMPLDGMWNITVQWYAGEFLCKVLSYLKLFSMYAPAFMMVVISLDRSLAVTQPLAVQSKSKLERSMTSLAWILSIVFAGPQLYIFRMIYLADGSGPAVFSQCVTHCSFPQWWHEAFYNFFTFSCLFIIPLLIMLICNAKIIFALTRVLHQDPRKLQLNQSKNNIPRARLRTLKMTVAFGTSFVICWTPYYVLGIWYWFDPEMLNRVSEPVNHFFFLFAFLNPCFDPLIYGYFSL
Put plainly: Inhibitory concentration towards rat leutinizing releasing hormone receptor.

Experiment [2] concerns the target T2, Gonadotropin-releasing hormone receptor (Homo sapiens, UniProt P30968).
T2 sequence (P30968 whole entry): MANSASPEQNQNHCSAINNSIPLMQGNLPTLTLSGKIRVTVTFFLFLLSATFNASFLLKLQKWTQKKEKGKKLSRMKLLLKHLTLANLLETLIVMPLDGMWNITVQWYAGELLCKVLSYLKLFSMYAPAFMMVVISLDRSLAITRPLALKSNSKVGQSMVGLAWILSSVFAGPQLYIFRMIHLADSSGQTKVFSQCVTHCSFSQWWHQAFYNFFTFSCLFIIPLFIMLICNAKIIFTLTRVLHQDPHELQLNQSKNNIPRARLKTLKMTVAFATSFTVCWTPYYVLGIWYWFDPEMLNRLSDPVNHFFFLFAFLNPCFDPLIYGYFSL
Put plainly: Inhibitory concentration towards human leutinizing releasing hormone receptor.

On to `CC(C)(C)NC(=O)NCCc1nc2cc(S(=O)(=O)NCc3ccc(F)c(F)c3)ccc2n1Cc1ccccc1`, for which the figures for the IC50 in experiment [1] and in experiment [2] were 110 nM and 170 nM, respectively.
The matching figures for `CC(C)c1nc2cc(S(=O)(=O)NCc3ccc(F)cc3)ccc2n1Cc1ccccc1`: 690 nM and 390 nM.
The like results for `O=C(NCCc1nc2cc(S(=O)(=O)NCc3ccc(F)cc3)ccc2n1Cc1ccccc1)Nc1ccccc1Cl` were, in that order, 50 nM and 83 nM.
The like results for `CCNC(=O)NCCc1nc2cc(S(=O)(=O)NCc3ccc(F)cc3)ccc2n1Cc1ccccc1` were, in that order, 380 nM and 690 nM.
As to `O=C(NCCc1nc2cc(S(=O)(=O)NCc3ccc(F)cc3)ccc2n1Cc1ccccc1)Nc1ccccc1F`, the IC50 in experiment [1] is 53 nM; in experiment [2] it was 66 nM.
The like results for `NCCc1nc2cc(S(=O)(=O)NCc3ccc(F)cc3)ccc2n1Cc1ccccc1` were, in that order, greater than 10000 nM and greater than 10000 nM.
Consider `CC(C)(C)NC(=O)NCCc1nc2cc(S(=O)(=O)NCc3ccc(C(F)(F)F)c(F)c3)ccc2n1Cc1ccccc1`, for which the figures for the IC50 in experiment [1] and in experiment [2] were 51 nM and 57 nM, respectively.
The matching figures for `CC(C)(C)NC(=O)NCCc1nc2cc(S(=O)(=O)NCc3ccc(F)cc3)ccc2n1Cc1ccccc1`: 12 nM and 20 nM.
Take `CC(C)(C)NC(=O)CCCc1nc2cc(S(=O)(=O)NCc3ccc(F)cc3)ccc2n1Cc1ccccc1`: the IC50 worked out at 230 nM in experiment [1] and 400 nM in experiment [2].
The like results for `O=S(=O)(NCc1ccc(F)cc1)c1ccc2c(c1)nc(C1CC1)n2Cc1ccccc1` were, in that order, 1600 nM and 1900 nM.
The like results for `CC(C)(C)CNC(=O)NCCc1nc2cc(S(=O)(=O)NCc3ccc(F)cc3)ccc2n1Cc1ccccc1` were, in that order, 30 nM and 110 nM.
The matching figures for `COc1ccc(CNS(=O)(=O)c2ccc3c(c2)nc(CCNC(=O)NC(C)(C)C)n3Cc2ccccc2)cc1`: 200 nM and 340 nM.
As for `CC(C)(C)NC(=O)NCCc1nc2cc(S(=O)(=O)NCc3ccccc3F)ccc2n1Cc1ccccc1`, the IC50 was 450 nM in experiment [1] and 750 nM in experiment [2].
The like results for `CC(C)(C)NC(=O)NCCc1nc2cc(S(=O)(=O)NCc3ccccc3)ccc2n1Cc1ccccc1` were, in that order, 310 nM and 490 nM.
The matching figures for `CC(C)(C)CC(=O)NCCc1nc2cc(S(=O)(=O)NCc3ccc(F)cc3)ccc2n1Cc1ccccc1`: 840 nM and 2600 nM.
The matching figures for `CC(C)(C)NC(=O)NCCc1nc2cc(S(=O)(=O)NCc3ccc(Cl)cc3Cl)ccc2n1Cc1ccccc1`: 14 nM and 22 nM.
As for `CCCc1nc2cc(S(=O)(=O)NCc3ccc(F)cc3)ccc2n1Cc1ccccc1`, the IC50 in experiment [1] and in experiment [2] was greater than 10000 nM throughout.
Turning to `CC(C)NC(=O)NCCc1nc2cc(S(=O)(=O)NCc3ccc(F)cc3)ccc2n1Cc1ccccc1`, the figures for the IC50 in experiment [1] and in experiment [2] were 79 nM and 150 nM, respectively.
The matching figures for `CC(C)(C)NC(=O)NCCCc1nc2cc(S(=O)(=O)NCc3ccc(F)cc3)ccc2n1Cc1ccccc1`: 83 nM and 180 nM.
The matching figures for `CC(C)(C)OC(=O)NCCc1nc2cc(S(=O)(=O)NCc3ccc(F)cc3)ccc2n1Cc1ccccc1`: 540 nM and 740 nM.
The matching figures for `CC(C)(C)NC(=O)NCCc1nc2cc(S(=O)(=O)NCc3ccc(Cl)cc3)ccc2n1Cc1ccccc1`: 3.9 nM and 4.2 nM.

In general, IC50 refers to the point on the concentration scale where inhibition reaches its midpoint. Read a high IC50 as weaker potency.
